According to patent US20160115540A1, “PRODRUGS AND DRUGS” (Biogen MA Inc., priority 2013, published 2016):
Where a name gives a salt, the structure may show the parent alone.

System: liver
Test: Transcriptional profiling on Affymetrix GeneChips, single dose, naïve mice: liver
Format: in vivo, C57BL/6 mice
Conditions: for Number of differentially expressed genes identified: Liver: Naïve, Single Dose, 100 mpk, vs Vehicle
Experimental: Treated mice were sacrificed at 2, 7, or 12 hours. Tissues (liver, spleen, kidney, jejunum, cortex, hippocampus, striatum and whole blood) were collected and analyzed by transcriptional profiling on mouse Affymetrix GeneChips.
Tissues (liver, spleen, kidney, jejunum, cortex, hippocampus, striatum and whole blood) were collected and analyzed by transcriptional profiling on mouse Affymetrix GeneChips.
Animals were exposed to CO2 and whole blood collected via cardiac puncture. Two 100 μl aliquots of whole blood were collected in 1.5 mL microcentrifuge tubes and snap frozen in liquid nitrogen. Peripheral (liver, spleen, kidney and jejunum) and CNS brain (cerebellum, hippocampus, striatum and cortex) tissues were harvested and snap frozen in liquid nitrogen, with special care taken to collect tissues of similar size and from the same location. All samples were stored at −80° C. until RNA extraction was conducted.
For RNA preparation, frozen tissues were placed in 2 mL RNAse-free 96-well blocks with 1.5 mL QIAzol Lysis Reagent (QIAgen) and a 3.2 mm stainless steel bead (BioSpec Products, Bartlesville, Okla.). Tissues were disrupted for four cycles of 45 seconds in a Mini-Beadbeater (Biospec Products). RNA was extracted in chloroform and the aqueous phase was mixed with an equal volume of 70% ethanol. Extracted RNA was applied to RNeasy 96 plates and purified by the spin method according to the manufacturer's protocol (RNeasy 96 Universal Tissue Protocol, QIAgen, Hilden Germany).
Automated sample amplifications and biotin labelings were carried out using the NuGEN Ovation RNA Amplification system V2 (Cat #3100), Ovation WB reagent (Cat #1300) and Encore Biotin module (Cat #4200) (NuGEN Technologies, Inc, San Carlos, Calif.) according to manufacturer's recommendations using an Arrayplex automated liquid handler (Beckman Coulter, Indianapolis, Ind.). Two micrograms of biotin labeled sscDNA probe were hybridized to Affymetrix GeneChip Affymetrix HT_MG-430_PM plate arrays with modified conditions as described in Allaire et al. Washing and staining of the hybridized arrays were completed as described in the GeneChip Expression analysis technical manual for HT plate arrays using the Genechip® Array Station (Affymetrix, Santa Clara, Calif.) with modifications as described in Allaire et al. The processed GeneChip® plate arrays were scanned using GeneTitan scanner (Affymetrix, Santa Clara, Calif.).
Affymetrix scans were subject to quality control (QC) measures. These tests included a visual inspection of the distribution of raw signal intensities and an assessment of RNA degradation, relative log expression (RLE), and normalized unsealed standard error (NUSE). All sample scans that passed these QC metrics were included in the analysis.
All CEL files were subjected to GC-content-based Robust Multi-array Average (GCRMA) normalization (version 2.20.0) (Irizarry R A, et al. Nucleic Acids Res 2003; 31:e15; Li C, et al. Genome Biol 2001; 2:[…]0032). Expression levels were log (base 2) transformed.
All calculations and analyses were carried out using R (version 2.11.1) and Bioconductor computational tools (Gentleman R. Springer Science+Business Media 2005).

[1] = liver, 100 mg/kg, 2 hr, vs matched vehicle controls

## COC(=O)/C=C/C(=O)O [MMF, monomethyl fumarate]
LIVER, 100MMF-vs-Veh, 2 h
  FC 1437867_PM_at (no gene symbol): 1.50
  FC 1444516_PM_at (no gene symbol): 2.19
  FC 1447411_PM_at (no gene symbol): 2.81
  FC 9130221J17Rik (1443159_PM_at): 1.57
  FC Abcc1 (1452233_PM_at): 1.86
  FC Akr1b8 (1448894_PM_at): 2.27
  FC Caprin1 (1448348_PM_at): −1.56
  FC Clec4d (1420804_PM_s_at): 2.05
  FC Csnk2a1 (1419038_PM_a_at): −1.62
  FC Figf (1438953_PM_at): 2.25
  FC Figf (1438954_PM_x_at): 1.79
  FC Fxr1 (1452247_PM_at): −1.53
  FC Gclc (1424296_PM_at): 1.72
  FC Gclc (1455959_PM_s_at): 1.64
  FC Hmox1 1448239_PM_at: 2.41
  FC Meis2 (1440091_PM_at): −1.67
  FC Pgd (1436771_PM_x_at): 1.61
  FC Pgd (1437380_PM_x_at): 1.65
  FC Ppfibp2 (1417801_PM_a_at): 2.55
  FC Prpf38b (1455016_PM_at): −1.53
  FC Srxn1 (1419942_PM_at): 1.68
  FC Srxn1 (1426875_PM_s_at): 1.63
  FC Srxn1 (1451680_PM_at): 1.55
LIVER, 100MMF-vs-Veh, 7 h
  FC 2010003K11Rik (1424626_PM_at): 2.20
  FC 4930588G05Rik (1430175_PM_at): −1.76
  FC Akr1b8 (1448894_PM_at): 1.75
  FC Bmp6 (1450759_PM_at): 1.65
  FC Cda (1427357_PM_at): 1.92
  FC Clec4n (1419627_PM_s_at): 2.40
  FC Erc2 (1434582_PM_at): −1.95
  FC Fzd8 (1445815_PM_at): −1.81
  FC G6pdx (1448354_PM_at): 1.61
  FC Marco (1449498_PM_at): 2.44
  FC Nqo1 (1423627_PM_at): 2.20
  FC Pir (1429001_PM_at): 1.50
  FC Srxn1 (1419942_PM_at): 1.52
  FC Srxn1 (1426875_PM_s_at): 1.53
  FC Srxn1 (1451680_PM_at): 1.58
LIVER, 100MMF-vs-Veh, 12 h
  FC 1810055G02Rik (1425921_PM_a_at): 1.86
  FC 4933433P14Rik (1431334_PM_a_at): 1.81
  FC Ablim1 (1453103_PM_at): −1.51
  FC Car3 (1460256_PM_at): −1.57
  FC Clmn (1439117_PM_at): −1.54
  FC Ctla2a (1448471_PM_a_at): 1.63
  FC Dnajc12 (1417441_PM_at): 2.53
  FC Fndc3b (1433833_PM_at): 1.66
  FC Gadd45b (1450971_PM_at): 1.50
  FC Gm3579 (1431214_PM_at): 2.74
  FC Hyou1 (1423290_PM_at): 1.82
  FC Hyou1 (1423291_PM_s_at): 1.52
  FC Lrrc59 (1416235_PM_at): 1.65
  FC Nme6 (1448574_PM_at): 1.57
  FC Ppapdc1b (1428154_PM_s_at): 1.87
  FC Ppm1k 1441988_PM_at: −1.56
Liver
  Number of genes, DMF Only / MMF Only: 34
2 h after last dosing
  Number of differentially expressed genes identified: Liver: 23
7 h after last dosing
  Number of differentially expressed genes identified: Liver: 15
12 h after last dosing
  Number of differentially expressed genes identified: Liver: 16
[1]
  Murine Liver DEGs: Abcc1 (1452233_PM_at): 1.86
  Murine Liver DEGs: Akr1b8 (1448894_PM_at): 2.27
  Murine Liver DEGs: Ampd3 (1422573_PM_at): 1.70
  Murine Liver DEGs: Caprin1 (1448348_PM_at): −1.56
  Murine Liver DEGs: Clec4d (1420804_PM_s_at): 2.05
  Murine Liver DEGs: Cmah (1447019_PM_at): −1.55
  Murine Liver DEGs: Csnk2a1 (1419038_PM_a_at): −1.62
  Murine Liver DEGs: Figf (1438953_PM_at): 2.25
  Murine Liver DEGs: Fxr1 (1452247_PM_at): −1.53
  Murine Liver DEGs: Gclc (1424296_PM_at): 1.72
  Murine Liver DEGs: Hmox1 (1448239_PM_at): 2.41
  Murine Liver DEGs: Meis2 (1440091_PM_at): −1.67
  Murine Liver DEGs: Mkln1 (1416734_PM_at): −1.69
  Murine Liver DEGs: Pgd (1436771_PM_x_at): 1.61
  Murine Liver DEGs: Ppfibp2 (1417801_PM_a_at): 2.55
  Murine Liver DEGs: Prpf38b (1455016_PM_at): −1.53
  Murine Liver DEGs: Ptprb (1453908_PM_at): −1.76
  Murine Liver DEGs: Ptprg (1456070_PM_at): −1.85
